Assay results as given in US20070292912A1, “Diffusion-controlling sensor layer” (priority 1999, published 2007).

Assays:
[1] = tested on: Escherichia coli strain SM101 (pEBZ181) recA-lux SOS reporter gene cells; assay: Microtitre plate assay with SOS reporter gene system (recA-lux bioluminescence stimulated by ciprofloxacin); assay type: cell-based; conditions: for Rel. bioluminescence: microtitre plate, 28° C., 60 min, relative to CTAB-free reference
From the text: (§1) The reporter gene cell consists of the Escherichia coli strain SM101 which harbours the recombinant plasmid pEBZ181. This plasmid encodes a fusion between the recA promoter from E. coli and the structural genes of the bacterial luminescence of Vibrio fischeri (lux genes C, D, A, B, E and G). To construct the plasmid, the recA promoter-harbouring Bam H I fragment from the plasmid pUA80 [Barbe J, Fernandez de Henestrosa A R, Calero S, and Gilbert I (1991) Chromogenic Method for rapid isolation of recA-like mutants of Gram-negative bacteria. J. Bacteriol. 173: 404-406] was cloned into a derivative of the vector pEBZ112 [Peitzsch N, Eberz G, and Nies D (1998) Alcaligenes eutrophus as a bacterial chromate sensor. Appl. Environm. Microbiol. 64: 453-458] which harbours, inserted into the Nco I site of the luxG gene, a lacZ cassette [Becker A (1993) Analyse der Succinoglycan-Biosyntheseregion von Rhizobium meliloti 2011: Untersuchungen zur Identifizierung des bakteriellen Infektionssignals in der Symbiose mit Luzeme, doctoral thesis, Bielefeld University, Germany]. Plasmid pEBZ181 was transformed by standard methods [Sambrook J, Fritsch E F, and Maniatis T (1989) Molecular cloning: A laboratory manual (2nd edn), Cold Spring Harbor Laboratory Press] into the Escherichia coli strain SMIOI (obtained from E. coli Genetic Stock Center, Yale University, New Haven, USA) and employed for bioimaging experiments.
(§2) Treatment of bacteria with antibacterial agents such as 4-quinolonecarboxylic acids leads to induction of the so-called SOS repair mechanism [Walker C G (1984) Mutagenesis and inducible responses to deoxyribonucleic acid damage in Escherichia coli. Microbiol. Rev. 48: 60-93; Phillips I, Culabras E, Moreno F, and Baquero F (1987) Induction of the SOS response by new 4-quinolones. J. Antimicrob. Chemother. 20: 631-638; Piddock L J V, and Wise R (1987) Induction of the SOS response in Escherichia coli by 4-quinone antimicrobial agents. FEMS Microbiol. Lett. 41: 289-294]. The RecA protein is a main regulator of this repair mechanism, and SOS induction leads to enhanced expression of the recA gene. Measurement of the synthesis of the RecA protein [Little J W and Mount D W (1982) The SOS regulatory system of Escherichia coli. Cell 29: 11-22; Witkin E M (1976) Ultraviolet mutagenesis and inducible DNA repair in Escherichia coli. Bacteriol. Rev. 40: 864-907] or of recA-reporter gene fusions [Nunoshiba T and Nishioka H (1991) Rec-lac test for detecting SOS-inducing activity of environmental genotoxic substances. Mutation Res. 254:71-77] is one possible way of measuring SOS induction and consequently the effect of 4-quinolonecarboxylic acids. Since the strain E. coli SM101 (pEBZ181) harbours a plasmid with a recA-lux reporter gene fusion, it is suitable for detecting 4-quinolonecarboxylic acids or other SOS-inducing compounds. The presence of such compounds leads to enhanced expression of the luciferase gene and thus to a stimulation of bioluminescence.
In both assay formats ciprofloxacin was used for effect-specific induction of the SOS response. The bioluminescence stimulated in the reporter gene system used in this case provided the read-out signal which was recorded by video imaging. In order to test the tolerance of the two bioassay formats to interfering substances, assays were carried out in the presence of cytotoxic cetyltrimethylammonium bromide (CTAB).
Five assay solutions were made up in a 96-well microtitre plate (Dynatech Microlite). A volume of 200 μl contained in each case:
16 μl of reporter gene cell suspension (OD: 1.2 at 660 nm) in 2% LB medium
90 μl of solution of substances 1.-5. in water
1. 25 ng of ciprofloxacin hydrochloride monohydrate
2. 25 ng of ciprofloxacin hydrochloride monohydrate+50 ng of CTAB
3. 25 ng of ciprofloxacin hydrochloride monohydrate+100 ng of CTAB
4. 25 ng of ciprofloxacin hydrochloride monohydrate+200 ng of CTAB
5. 25 ng of ciprofloxacin hydrochloride monohydrate+500 ng of CTAB […]

[2] = tested on: Escherichia coli strain SM101 (pEBZ181) recA-lux SOS reporter gene cells; assay: Activity measurement with the diffusion-controlling sensor layer (SOS reporter gene cells in agarose on TLC plate); assay type: cell-based; conditions: for Rel. bioluminescence: sensor layer 2 mm, 28° C., 60 min
From the text: as §1
as §2, with “Mutation Res. 254:71-77] is one possible way of measuring SOS induction and consequently the effect of 4-quinolonecarboxylic acids. Since the strain E. coli SM101 (pEBZ181) harbours a plasmid with a recA-lux reporter gene fusion, it is suitable for detecting 4-quinolonecarboxylic acids or other SOS-inducing compounds. The presence of such compounds leads to enhanced expression of the luciferase gene and thus to a stimulation of bioluminescence.” left out
In both assay formats ciprofloxacin was used for effect-specific induction of the SOS response. The bioluminescence stimulated in the reporter gene system used in this case provided the read-out signal which was recorded by video imaging. […]

Compound CCCCCCCCCCCCCCCC[N+](C)(C)C.[Br-] [CTAB, cetyltrimethylammonium bromide] has a Rel. bioluminescence ([1]; CTAB 50 ng/200 μl with 25 ng ciprofloxacin hydrochloride monohydrate) of 0.88, a Rel. bioluminescence ([1]; CTAB 100 ng/200 μl with 25 ng ciprofloxacin hydrochloride monohydrate) of 0.87 and a Rel. bioluminescence ([1]; CTAB 200 ng/200 μl with 25 ng ciprofloxacin hydrochloride monohydrate) of 0.78. The Rel. bioluminescence ([1]; CTAB 500 ng/200 μl with 25 ng ciprofloxacin hydrochloride monohydrate) was 0.44, the reduction in bioluminescence ([1]; microtitre plate format, CTAB concentrations up to 500 ng/200 μl, ciprofloxacin-stimulated) was “more than 50%” and the “fall in the bioluminescence (of the initial value)” value ([1]; microtitre plate format, addition of CTAB, ciprofloxacin-stimulated) was “about 40%”. For the same compound, the Rel. bioluminescence ([2]; CTAB 250 ng/200 μl (calculated analogous concentration) with 10 ng ciprofloxacin hydrochloride monohydrate) was 1.002, the Rel. bioluminescence ([2]; CTAB 500 ng/200 μl (calculated analogous concentration) with 10 ng ciprofloxacin hydrochloride monohydrate) was 1.023 and the “bioactivity measurement on addition of CTAB” value ([2]; sensor layer format, ciprofloxacin-stimulated bioluminescence) was “not impaired”. The “relative bioluminescence as a measure of the selective stimulation by ciprofloxacin” value ([2]; sensor layer format, up to CTAB concentrations of 500 ng/200 μl) was “remained constant”.
